Results on three molecules are retold here after US20170050966A1, “INHIBITING THE TRANSIENT RECEPTOR POTENTIAL A1 ION CHANNEL” (HYDRA BIOSCIENCES, INC., priority 2014, published 2017).

Data set [1] in a line: Kinetic solubility in buffered solutions. It is filed as physicochemical. Conditions: aqueous buffer, kinetic from dmso stock, 24 hours ambient. As to the method: The solubilities of the compounds of Formula (I) were tested using the procedure outlined in Kerns, E. H., J Pharm Sci (2001) 90:1838-1858, incorporated herein by reference and described below. Data for solubility was obtained by this method for compounds of Formula (I) and included in Table 3. The chromatographic data was performed by HPLC using an Xbridge Shield RP18 column with the following column dimensions: 4.6×30 mm, 3.5 μm. The mobile phase consisted of deionized water (MPA) with trifluoroacetic acid added in at 0.1% (v/v) (MPC) and HPLC-grade acetonitrile (MPB). The mobile phase flow rate was 2.5 mL/min with the column and sampling operating at ambient temperature. UV detection was set to 280 nm.
Samples for analysis of the compounds of Formula (I) were prepared at a % v/v=1/19 (i.e., 10 μL of the stock solution into 190 μL of buffer) by spiking stock solutions of the compounds of Formula (I) into buffered solutions. Three buffered solution systems were prepared: pH 4.0 prepared from 50 mM sodium acetate in a 5% dextrose in water solution, pH 7.4 prepared from 75 mM sodium phosphate in a 1:1 ratio of sterilized water for injection to a 5% dextrose in water solution, and pH 9.0 prepared from 50 mM sodium bicarbonate in a 1:2 ratio of sterilized water for injection to a 5% dextrose in water solution. The samples were incubated on a microplate shaker at 300 rpm for 24 hours at ambient temperature. Following incubation, the samples were centrifuged for five minutes at 13 k rpm at ambient temperature. The resulting supernantant was extracted for HPLC analysis.

Data set [2] addresses CYP2C19 (Homo sapiens, UniProt P33261). Kind of data set: P450 Cyp-inhibition luminescent assay. The format is biochemical. As for the experimental part:
(§1) The ability of Compound 2 to inhibit human CYP450 enzymes was evaluated. Compound 1 and Compound 2 were tested in standard P450 Cyp-inhibition luminescent assay.

Data set [3] concerns the target CYP2D6 (Homo sapiens, UniProt P10635). Briefly: P450 Cyp-inhibition luminescent assay. The format is biochemical. As for the experimental part:
as §1

Data set [4] deals with T1, CYP1A2 (Homo sapiens, UniProt P05177).
T1 sequence (P05177 1-516): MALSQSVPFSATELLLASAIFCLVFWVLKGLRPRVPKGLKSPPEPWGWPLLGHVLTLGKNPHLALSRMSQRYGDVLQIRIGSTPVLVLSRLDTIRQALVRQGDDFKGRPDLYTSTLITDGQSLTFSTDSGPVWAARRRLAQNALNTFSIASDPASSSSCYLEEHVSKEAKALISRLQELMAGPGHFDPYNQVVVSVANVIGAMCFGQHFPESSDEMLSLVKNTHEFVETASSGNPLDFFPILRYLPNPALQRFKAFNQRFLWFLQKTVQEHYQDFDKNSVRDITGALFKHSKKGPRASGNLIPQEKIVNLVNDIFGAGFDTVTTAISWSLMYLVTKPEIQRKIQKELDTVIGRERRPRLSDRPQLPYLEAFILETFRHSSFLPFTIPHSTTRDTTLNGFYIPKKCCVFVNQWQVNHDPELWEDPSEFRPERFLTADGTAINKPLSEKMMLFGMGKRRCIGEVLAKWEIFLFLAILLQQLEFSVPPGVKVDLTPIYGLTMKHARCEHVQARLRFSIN
Kind of data set: P450 Cyp-inhibition luminescent assay. It is filed as biochemical. As for the experimental part: as §1

The target of data set [5] is CYP2C9 (Homo sapiens, UniProt P11712). Briefly: P450 Cyp-inhibition luminescent assay. It is filed as biochemical. As to the method: as §1
Chain of CYP2C9 (P11712 whole entry): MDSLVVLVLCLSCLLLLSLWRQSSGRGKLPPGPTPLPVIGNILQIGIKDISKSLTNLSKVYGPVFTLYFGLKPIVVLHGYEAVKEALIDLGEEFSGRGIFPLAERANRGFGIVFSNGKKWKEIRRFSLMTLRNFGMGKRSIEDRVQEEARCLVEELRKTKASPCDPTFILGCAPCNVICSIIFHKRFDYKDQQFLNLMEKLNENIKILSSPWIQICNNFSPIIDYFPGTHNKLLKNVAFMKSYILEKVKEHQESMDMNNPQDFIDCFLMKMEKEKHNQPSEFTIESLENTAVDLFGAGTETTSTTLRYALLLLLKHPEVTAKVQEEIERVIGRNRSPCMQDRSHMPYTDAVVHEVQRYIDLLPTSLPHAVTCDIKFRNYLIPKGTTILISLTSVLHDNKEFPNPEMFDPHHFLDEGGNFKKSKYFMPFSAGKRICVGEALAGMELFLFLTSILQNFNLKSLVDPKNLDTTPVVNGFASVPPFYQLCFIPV
Data set [6] concerns the target CYP3A4 (Homo sapiens, UniProt P08684). Kind of data set: P450 Cyp-inhibition luminescent assay. It is filed as biochemical. As for the experimental part: as §1
Data set [7] concerns formalin model in the rat. Briefly: Formalin-induced pain test. The format is in vivo. As to the method:
Compound 2 was tested in the formalin-induced pain test reported by Dubuisson et al., Pain (1977) December; 4(2):161-74. Dubuisson et al describe a method for assessing pain and analgesia in rats and cats. Briefly, dilute formalin (50 μL of 3% formalin) is injected into the plantar surface of the hind paw of a rat. […] The initial phase (Phase I: 0-5 min) is thought to have a significant component that is dependent upon direct activation of afferent fibers by formalin and functional TRPA1 (McNamara et al., 2007). The individual responsible for counting the pain behaviors in a particular study is blinded to the treatment groups.
Investigators studied oral administration of Compound 2 at 1, 3 and 10 mg/kg on pain behaviors in the formalin model in the rat. Compound 2 was prepared as solutions in 4% DMSO, 10% Solutol HS15, 86% WFI. Animals were dosed orally with Vehicle (4% DMSO, 10% Solutol, 86% WFI), or Compound 2 at 1, 3 or 10 mg/kg one hour prior to intraplantar formalin. […] (n=8 per group) (*=p<0.05, **=p<0.01, *** p<0.001: 1-tailed T-test)
A reduction in the duration of pain behaviors was also observed with Compound 4 from 0-5 minutes post-formalin administration. Using the methods described above for the formalin assay, Compound 4 was formulated as a solution in 4% DMSO; 5% Tween-80; 20% Cremophor EL; and 71% WFI and administered by oral gavage to rats.
Using the methods described above for the formalin assay, Compound 4 was formulated as a suspension in 0.5% methylcellulose and administered by oral gavage to rats.
The persistence of the response was also studied. Compound 2 was prepared as a solution in 4% DMSO, 10% Solutol HS15, and 86% WFI. Rats were treated with 10 mg/kg of oral doses of Compound 2 or with the vehicle (PO).

The mark [8] stands for this setting: sodium acetate buffer, pH 4.0, 50 mM sodium acetate, read-out: pH 4.0 solubility.
Setting [9] is: sodium bicarbonate buffer, pH 9.0, 50 mM sodium bicarbonate, read-out: pH 9.0 solubility.
[10] abbreviates: sodium phosphate buffer, pH 7.4, 75 mM sodium phosphate, read-out: pH 7.4 solubility.
Where [11] appears, read: 10 mg/kg PO, 1 Hr pre-treatment.
The mark [12] stands for this setting: 10 mg/kg PO, 2 Hr pre-treatment.
The mark [13] stands for this setting: 10 mg/kg PO, 4 Hr pre-treatment.
[14] abbreviates: 10 mg/kg PO, 6 Hr pre-treatment.
[15] abbreviates: 10 mg/kg PO, 15 Min pre-treatment.
The mark [16] stands for this setting: 10 mg/kg PO, 24 Hr pre-treatment.
Where [17] appears, read: 10 mg/kg PO, 30 Min pre-treatment.
The mark [18] stands for this setting: 1 mpk PO, one hour prior to formalin.
Where [19] appears, read: 3 mpk PO, one hour prior to formalin.
Setting [20] is: 10 mpk PO, one hour prior to formalin.
[21] abbreviates: 1 mpk PO, solution in DMSO/Tween-80/Cremophor EL/WFI.
[22] abbreviates: 1 mpk PO, suspension in 0.5% methylcellulose.

≈ marks a conversion by molar mass, not a printed value. Where two headings read alike, the source gives them in different places.

Chain of CYP2D6 (P10635 whole entry): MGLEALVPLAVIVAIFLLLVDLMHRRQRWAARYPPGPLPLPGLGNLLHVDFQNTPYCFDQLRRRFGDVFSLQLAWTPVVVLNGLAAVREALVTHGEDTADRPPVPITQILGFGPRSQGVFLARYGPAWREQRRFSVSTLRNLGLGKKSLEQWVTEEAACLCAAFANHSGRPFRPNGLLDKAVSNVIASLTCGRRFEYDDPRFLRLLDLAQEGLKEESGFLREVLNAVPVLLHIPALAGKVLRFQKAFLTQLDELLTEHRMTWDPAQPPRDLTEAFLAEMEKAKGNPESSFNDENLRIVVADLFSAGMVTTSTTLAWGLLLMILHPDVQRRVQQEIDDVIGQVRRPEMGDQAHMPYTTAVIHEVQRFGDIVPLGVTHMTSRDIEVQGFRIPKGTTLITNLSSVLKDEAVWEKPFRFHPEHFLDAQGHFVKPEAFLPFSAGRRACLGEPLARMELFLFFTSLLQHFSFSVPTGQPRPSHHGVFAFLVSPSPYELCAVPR
Chain of CYP2C19 (P33261 whole entry): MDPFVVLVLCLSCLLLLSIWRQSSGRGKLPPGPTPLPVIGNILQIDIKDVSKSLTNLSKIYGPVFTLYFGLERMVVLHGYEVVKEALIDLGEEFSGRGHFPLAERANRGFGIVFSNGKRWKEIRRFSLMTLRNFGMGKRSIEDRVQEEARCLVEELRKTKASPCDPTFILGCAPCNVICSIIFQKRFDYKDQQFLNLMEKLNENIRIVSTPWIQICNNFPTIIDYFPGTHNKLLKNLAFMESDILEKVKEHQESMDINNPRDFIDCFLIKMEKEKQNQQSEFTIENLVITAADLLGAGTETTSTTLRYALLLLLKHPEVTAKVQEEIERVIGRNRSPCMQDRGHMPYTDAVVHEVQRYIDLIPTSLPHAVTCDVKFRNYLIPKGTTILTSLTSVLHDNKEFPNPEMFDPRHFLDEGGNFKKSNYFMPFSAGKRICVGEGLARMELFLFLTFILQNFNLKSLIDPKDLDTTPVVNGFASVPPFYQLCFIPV
Chain of CYP3A4 (P08684 whole entry): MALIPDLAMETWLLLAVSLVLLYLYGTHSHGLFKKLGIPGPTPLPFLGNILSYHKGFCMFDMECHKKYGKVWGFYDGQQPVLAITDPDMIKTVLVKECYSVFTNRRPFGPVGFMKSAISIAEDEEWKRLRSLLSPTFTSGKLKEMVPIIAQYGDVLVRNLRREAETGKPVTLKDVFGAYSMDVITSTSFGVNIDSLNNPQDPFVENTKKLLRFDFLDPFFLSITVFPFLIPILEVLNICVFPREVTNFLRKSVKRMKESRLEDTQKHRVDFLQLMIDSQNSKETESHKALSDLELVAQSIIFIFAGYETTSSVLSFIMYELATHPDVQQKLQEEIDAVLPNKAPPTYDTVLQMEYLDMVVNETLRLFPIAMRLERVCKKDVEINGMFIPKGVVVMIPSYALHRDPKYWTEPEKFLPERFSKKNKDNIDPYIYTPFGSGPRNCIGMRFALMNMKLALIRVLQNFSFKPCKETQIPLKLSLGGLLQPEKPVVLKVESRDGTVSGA

Take `C[C@@H](C(=O)Nc1ccnc(-c2cnc(N3CCCC3(C)C)nc2)n1)n1cnc2c1c(=O)n(C)c(=O)n2C` [Compound 1, (S)-2-(1,3-dimethyl-2,6-dioxo-2,3-dihydro-1H-purin-7(6H)-yl)-N-(2′-(2,2-dimethylpyrrolidin-1-yl)-[2,5′-bipyrimidin]-4-yl)propanamide]: the solubility kinetic at 24 h in data set [1] (setting [8]) is 4 µg/mL (≈ 7.93 µM); in data set [1] (setting [9]) it was 2 µg/mL (≈ 3.96 µM); in data set [1] (setting [10]) it was 3 µg/mL (≈ 5.95 µM). In data set [2], the “CYP 2C19: % Inhibition” value came to 45.9%. Further, the “CYP 2D6: % Inhibition” value in data set [3] is listed as 9%. The “CYP 1A2: % Inhibition” value in data set [4] was found to be 4.2%. In data set [5], the “CYP 2C9: % Inhibition” value is listed as 71.4%. The “CYP 3A4: % Inhibition” value in data set [6] stood at 26.9%. The “Duration 0-2 min” value in data set [7] (1 mg/kg IV) was 35.50 s; in data set [7] (3 mg/kg IV), 6.25 s. For the same molecule, the results for the “Duration 0-5 min” value in data set [7] (1 mg/kg IV) and in data set [7] (3 mg/kg IV) were 153.25 s and 111.25 s, respectively.

In the case of `C[C@@H](C(=O)Nc1ccnc(-c2cnc(N3CCC[C@H]3C(F)(F)F)nc2)n1)n1cnc2c1c(=O)n(C)c(=O)n2C` [Compound 2, (S)-2-(1,3-dimethyl-2,6-dioxo-2,3-dihydro-1H-purin-7(6H)-yl)-N-(2′-((S)-2-(trifluoromethyl)pyrrolidin-1-yl)-[2,5′-bipyrimidin]-4-yl)propanamide], the solubility kinetic at 24 h stood at 85 µg/mL (≈ 156 µM) in data set [1] (setting [8]), 69 µg/mL (≈ 127 µM) in data set [1] (setting [9]) and 71 µg/mL (≈ 130 µM) in data set [1] (setting [10]). Further, the “CYP 2C19: % Inhibition” value in data set [2] is 29.1%. In data set [3], the “CYP 2D6: % Inhibition” value is on record as 6.3%. Moreover, the “CYP 1A2: % Inhibition” value in data set [4] is listed as 0.299%. For the same molecule, the “CYP 2C9: % Inhibition” value in data set [5] was 39.6%. Besides, in data set [6], the “CYP 3A4: % Inhibition” value is 2.7%. Also, the “reduction of pain behaviors from 0-5 minutes” value in data set [7] (1 mg/kg PO, vs vehicle, did not reach statistical significance) was approximately 14%. For the same molecule, in data set [7] (1 mg/kg PO, vs vehicle, not statistically significant), the “decrease in the duration of pain behaviors from 0-2 minutes” value was approximately 14%. The “decrease in formalin-induced pain behaviors from 0-2 minutes” value in data set [7] (3 mg/kg PO, vs vehicle) was approximately 72%; in data set [7] (10 mg/kg PO, vs vehicle), approximately 89%. Besides, the “reduction of duration of pain behaviors from 0-5 minutes” value in data set [7] (3 mg/kg PO, vs vehicle) is listed as approximately 46%; in data set [7] (10 mg/kg PO, vs vehicle), approximately 60%. Also, the “Duration 0-2 min” value in data set [7] (setting [11]) was determined as 14.50 s; in data set [7] (setting [12]) it was 12.00 s; in data set [7] (setting [13]), 19.00 s; in data set [7] (setting [14]) it was 22.75 s; in data set [7] (setting [15]), 82.50 s; in data set [7] (setting [16]), 96.63 s. Further, the “Duration 0-2 min” value is 62.50 s in data set [7] (setting [17]), 73.00 s in data set [7] (setting [18]), 23.25 s in data set [7] (setting [19]) and 9.25 s in data set [7] (setting [20]). The “Duration 0-5 min” value was 146.14 s in data set [7] (setting [11]); 118.10 s in data set [7] (setting [12]); 135.84 s in data set [7] (setting [13]); 156.61 s in data set [7] (setting [14]); 185.43 s in data set [7] (setting [15]); 197.15 s in data set [7] (setting [16]). Further, the “Duration 0-5 min” value in data set [7] (setting [17]) came to 181.40 s; in data set [7] (setting [18]) it was 157.38 s; in data set [7] (setting [19]), 99.00 s; in data set [7] (setting [20]), 73.50 s. The “decrease in the duration of formalin-induced pain behaviors 0-2 minutes” value in data set [7] (10 mg/kg PO, 15 minute to 6 hour pre-treatment, vs vehicle) is listed as 30-87%. Moreover, in data set [7] (10 mg/kg PO, 30 minutes to 6 hours prior to formalin injection), the “duration of formalin-mediated pain behaviors” value was “significantly decreased the duration of formalin-mediated pain behaviors”.

Take `C[C@@H](C(=O)Nc1ccnc(-c2cnc(N3CCC[C@@H]3C(F)(F)F)nc2)n1)n1cnc2c1c(=O)n(C)c(=O)n2C` [Compound 4, (S)-2-(1,3-dimethyl-2,6-dioxo-2,3-dihydro-1H-purin-7(6H)-yl)-N-(2′-((R)-2-(trifluoromethyl)pyrrolidin-1-yl)-[2,5′-bipyrimidin]-4-yl)propanamide]: the “Duration 0-2 min” value in data set [7] (setting [21]) was found to be 76.13 s; in data set [7] (setting [22]), 80.38 s; in data set [7] (3 mpk PO, solution), 45.25 s; in data set [7] (3 mpk PO, suspension), 51.13 s; in data set [7] (10 mpk PO, solution) it was 47.13 s; in data set [7] (10 mpk PO, suspension), 38.13 s. For the same molecule, the “Duration 0-5 min” value was found to be 197.88 s in data set [7] (setting [21]); 186.25 s in data set [7] (setting [22]); 175.88 s in data set [7] (3 mpk PO, solution); 163.25 s in data set [7] (3 mpk PO, suspension); 191.00 s in data set [7] (10 mpk PO, solution); 144.25 s in data set [7] (10 mpk PO, suspension).
